{"source": "patent US20210154281A1", "about": "“CELL-BASED CANCER VACCINES AND CANCER THERAPIES” (Massachusetts Institute of Technology, priority 2019, published 2021)", "key": {"[1]": {"test_system": "B16-Ova cells", "experiment": "Proportion of live and dead cells (AnnV/DAPI) after 24 h treatment with increasing doses", "type": "cell-based, mouse", "experimental": "B16-Ova cells or MC-38-Ova cells were treated with various doses of chemotherapy as indicated in FIGS. 1F-1I for 24 hours after which the floating fraction of cells was transferred to a separate tube and washed with PBS (for AnnV/DAPI staining) or IMDM (for co-culture with BMDC). The attached fraction was rinsed 1× with PBS, detached using 5 mM EDTA (in PBS), washed with PBS or IMDM and transferred to a separate tube. Separately, cells treated with chemotherapy for 24 h were re-plated at 1 million cells per well of a 24-well plate in 500 ul of IMDM (10% FBS; P/S). Cell-free supernatants were collected after a further 24 h. […] Lysate of the total chemotherapy-treated cell mixture was generated by three rounds of freeze-thawing by alternate incubations in liquid nitrogen and a 37 C water bath."}, "[2]": {"test_system": "RIPK1", "experiment": "Western blotting with anti phosphoRIPK1(S166) antibody", "type": "cell-based, mouse", "settings": "B16-Ova cells"}, "[3]": {"test_system": "B16-Ova tumors", "experiment": "Flank B16-Ova tumors in mice: tumor size, survival, re-challenge", "type": "in vivo, C57BL/6J WT mice", "settings": "intratumoral injection alone, three weekly doses", "experimental": "Cross-sectional area of tumors was measured in mm^2 using calipers every 2-3 days. In tumor re-challenge experiments, naive mice controls or mice who had complete tumor regression and remained tumor free for at least 60 days were subcutaneously injected in the left flank (contra-lateral to the initial tumor) with 0.1×10^6 B16-Ova cells, and tumor development was monitored for another 60 days."}, "[4]": {"test_system": "B16-Ova tumors", "experiment": "Circulating H2-Kb/[…]-tetramer positive CD8+ T-cells in mice bearing B16-Ova tumors", "type": "in vivo, C57BL/6J WT mice", "settings": "bled after the second intra-tumoral dose", "experimental": "Briefly, 50 μl of whole blood was collected by retro-orbital bleeding, centrifuged at 250×g for 5 min, followed by 3 rounds of RBC lysis in 200 ul of ACK buffer. Cells were then washed once in Tetramer stain buffer (PBS containing 5 mM EDTA, 1% BSA and 50 nM Dasatinib), and stained with PE-conjugated Tetramer for 40 min at RT, followed by co-staining with anti-CD8 for 10 min at 4° C. Cells were then stained with DAPI, washed and re-suspended in tetramer stain buffer for flow cytometry analysis."}, "[5]": {"test_system": "B16-Ova tumors", "experiment": "Immunophenotyping of intra-tumoral DC by flow cytometry", "type": "in vivo, mice", "settings": "combined with checkpoint blockade; after 2 doses of vaccine or etoposide and 3 doses of checkpoint blockade", "experimental": "Phenotypic characterization of immune cell populations was performed by flow cytometry. Briefly, tumors were harvested and mashed through a […] filter. Collected cells were washed in FACS buffer (PBS containing 5 mM EDTA and 1% BSA), resuspended, and counted. Five million cells from each sample were stained with fluorophore-conjugated antibodies on ice for 30 min, co-stained with Aqua, washed, resuspended in 450 μl, supplemented with 50 μl of CountBright absolute counting beads, and analyzed on a BD LSR Fortessa flow cytometer. DCs were scored as CD45+Ly6CCD24+MHCII+F480−(CD11b+ or CD103+) cells using the gating strategy described in Broz M L, et al., Cancer Cell, 8; 26(6):938 (2014).\nTo test whether the efficacy of the tumor cell vaccine and checkpoint combination treatment for an anti-tumor immune response depends on DCs that can cross-present tumor antigens, the numbers of CD11b^+C103^−DC2 cells and CD11b^−CD103^+DC1 cells were enumerated by immunophenotyping and flow cytometry. […] As before, mice bearing flank B16-Ova tumors were treated with saline or the tumor cell vaccine intra-tumorally, in the presence or absence of systemic checkpoint blockade (FIG. 5A), and analyzed. […]"}, "[6]": {"test_system": "BMDCs", "experiment": "Viability of BMDCs upon exposure to etoposide"}}}
{"molecule": "COc1cc([C@@H]2c3cc4c(cc3[C@@H](O[C@@H]3O[C@@H]5CO[C@@H](C)O[C@H]5[C@H](O)[C@H]3O)[C@H]3COC(=O)[C@H]23)OCO4)cc(OC)c1O", "note": "[Etop, etoposide]", "values": [{"measurement": "proportion of dead cells (AnnV or DAPI single or double positive)", "setting": "[1]; 25 uM", "result": "~30", "unit": "%"}, {"measurement": "further increase of the proportion of dead cells", "setting": "[1]; 100 uM", "result": "~5", "unit": "%"}, {"measurement": "proportion of dead cells (AnnV or DAPI single or double positive)", "setting": "[1]; between 25 and 75 uM", "result": "~30", "unit": "%"}, {"measurement": "RIPK1 activation", "setting": "[2]", "result": "induce RIPK1 activation"}, {"measurement": "tumor growth", "setting": "[3]", "result": "no effect on tumor growth"}, {"measurement": "H2-Kb-SIINFEKL (SEQ ID NO: 1)-specific T-cells (%) MEAN", "setting": "[4]", "result": 0.29, "unit": "%"}, {"measurement": "number of CD103+DC1 in tumors", "setting": "[5]", "result": "did not enhance numbers of CD103+DC1"}, {"measurement": "viability of BMDCs", "setting": "[6]", "result": "significantly reduced"}]}
{"molecule": "O=C1c2c(O)ccc(O)c2C(=O)c2c(NCCNCCO)ccc(NCCNCCO)c21", "note": "[Mito, mitoxantrone]", "values": [{"measurement": "dead cell proportion", "setting": "[1]; 25 uM and higher doses", "result": "greater than 90%"}, {"measurement": "dead cell proportion", "setting": "[1]; between 5 and 10 uM", "result": "~50", "unit": "%"}, {"measurement": "RIPK1 activation", "setting": "[2]", "result": "induce RIPK1 activation"}]}
